Results: patent US20090004137A1, “Uridine Derivatives as Antiviral Drugs Against a Flaviviridae, Especially Hcv” (priority 2004, published 2009)
Where two headings read alike, the source gives them in different places.

Experiments:
[1] = test system: subgenomic HCV replicon BM4-5 in Huh7 cells; assay: Antiviral assay on HCV subgenomic replicon, Northern blot of (+)-strand HCV RNA; type: cell-based, Hepatitis C Virus; details: for IC50: read-out: IC50, anti-HCV activity, (+)-RNA; for IC90: read-out: IC90, anti-HCV activity, (+)-RNA; for Selectivity Index (SI), ratio between CC50 and IC50: replicon system
Procedure: (§1) Antiviral and Cytotoxicity assays for HCV. Huh7 cells harbouring the subgenomic HCV replicon BM4-5 (J. T. Guo et al., J. Virol. 2001, 75: 8516-8523) were used in this study. Cells were maintained in Dulbecco's modified Eagle's medium high glucose 4.5 g/l (LifeTechnlogies) supplemented with 10% fetal bovine serum, 1% L-glutamine, 1% penicillin and streptomycin, 1% L-Pyruvate and 500 μg/ml of geneticien (G418, Invitrogen). Geneticin was used to select cells permitting the HCV RNA replication. Cells were passaged every four days with a 1:4 ratio.
Cells were seeded in 6-wells plates at a density of 2.5×10^5 cells per well, sixteen hours before the beginning of treatment. […] The administration of each drug was renewed every day for three consecutive days. Ribarivin (ICN Pharmaceuticals), mycophenolic acid (MPA, Sigma), and interferon alpha-2b (IntronA®)) were used in the same conditions as positive controls. The concentrations used for these drugs were respectively: 0; 0.5; 1; 2; 4; 8; 16; 32; 64; 128; 256 and 512 μM for ribavirin, 0; 2.5; 5; 10; 20; 40 μM for mycophenolic acid, and 0; 0.1; 1; 10; 100 and 1000 Ul/mL for IFN alpha-2b. Total RNA was extracted at the end of treatment (24 hours after the last day of treatment) with the <<Extract all>> reagent (Eurobio), which is a mix of phenol and guanidium thiocyanate. Northern blot analysis was then performed using the NorthernMax™-Gly kit (Ambion), following manufacturer's instructions. Five micrograms of total RNA were denaturated in glyoxal buffer at 50° C. for 30 minutes, separated by 1.1% agarose gel electrophoresis, and then transferred for 12 hours onto a charged nylon membrane (HybondN+, Amersham). Hybridization was carried out with three different [^32P]CTP-labelled riboprobes obtained by in vitro transcription (Riboprobe in vitro transcription system, Promega). Two probes were complementary to the NS5A region of the HCV genome of negative polarity and positive polarity. A third probe was complementary to the beta-actin mRNA and obtained by in vitro transcription from a specific plasmid (PTRI beta actin human, reference 7424, Ambion). First, the blot was hybridized with the riboprobes directed against the negative strand of HCV RNA and beta-actin mRNA, respectively. After one night of hybridization at 68° C., the membrane was washed, then exposed to X-ray film and a phosphor screen (phosphorimager). This screen was then scanned and quantitative analysis was achieved using ImageQuant software. The amount of beta-actin mRNA was used as an internal loading control to standardize the amount of HCV RNA detected. The same membrane was subsequently hybridized with the […] to determine the level of positive strand HCV RNA, suing the same approach.

[2] = Cell viability (neutral red) on the replicon system; type: cell-based; details: human, Huh7 cells harbouring the subgenomic HCV replicon BM4-5, neutral red test, drug renewed daily for three days, read-out: CC50, cytotoxicity on Replicon System
Procedure: as §1
(§2) For cell viability assays, cells were seeded in 96-well plates at a density of 12,500 cells per well. They were treated by the different molecules with the same concentrations and conditions than those used for the antiviral assays. Then, cell viability was measured by neutral red assay. Neutral red specifically colors lysosomes and its accumulation depends on cellular membrane integrity. The yield of neutral red incorporated in cells is proportional to the number of living cells. At the end of treatment, culture medium was removed; cells were washed by PBS, then coloured with neutral red at 0.005% for 3 hours at 37° C. Cells were then fixed 1 minute by formol calcium and lysed by atreatment with a vol/vol mixture of acetic acid and ethanol. After 15 minutes incubation, absorbance was read at 490 nm.

[3] = Cytotoxicity against PBM cells; type: cell-based; details: human
[4] = Cytotoxicity against CEM cells; type: cell-based; details: human
[5] = Cytotoxicity against VERO cells; type: cell-based; details: African green monkey
[6] = test system: BVDV strain NADL; assay: Antiviral assay on BVDV, inhibition of cytopathic effect in MDBK cells; type: cell-based; details: Bovine viral diarrhea virus isolates and strains, read-out: EC50 ECP inhibition (3rd day p.i.)
Procedure: (§3) Antiviral and cytotoxicity assays for BVDV. Noncytopathic-BVDV-free MDBK cells (European Collection of Animal Cell Cultures, Porton Down, U.K.) were kindly provided by Dr N. Zitzmann (Oxford University). Cells were propagated in DMEM F12 (Eurobio) supplemented with 10% horse serum (Life Technologies), 1% L-glutamin (Gibco), 1% penicillin ansd streptomycin (Gibco).
MDBK cells were seeded in microwell plates (96 wells) at a density of 1.10^5 cells per well, then infected with BVDV (strain NADL) (at dilution inducing 100%/o cytopathic effect three days post inoculation, i.e approximately 10 plaque forming units (pfu) per well at three days post infection) for one hour, at 37° C. After a wash with DMEM, infected cells were incubated for three days in the presence of absence of drug; each concentration of drug was added in 12 consecutive wells. The appearance of CPE was visually checked the third day post inoculation to evaluate the IC50 on BVDV (strain NADL), according to the different conditions of treatment.

[7] = Cytotoxicity on uninfected MDBK cells (neutral red); type: cell-based; details: cattle (bovine)
Procedure: as §2
as §3, with “(Gibco). The NADL cytopathic (CP) BVDV strain was obtained from ATCC: VR-504.” for “(Gibco).”
Uninfected MDBK cells were grown in the absence or presence of varying concentrations of drug tested. After 3 days, toxicity was evaluated by neutral red coloration as described above.

[8] = test system: Huh7 cells harbouring the subgenomic HCV replicon BM4-5; assay: Cell viability (neutral red) on the replicon system; type: cell-based; details: neutral red test, drug renewed daily for three days, read-out: CC50, cytotoxicity on Replicon System
Procedure: as §1, §2

[9] = test system: PBM cells; assay: Cytotoxicity against PBM cells; type: cell-based
[10] = test system: CEM cells; assay: Cytotoxicity against CEM cells; type: cell-based
[11] = test system: VERO cells; assay: Cytotoxicity against VERO cells; type: cell-based
[12] = Hepatitis C virus, 72 h, Huh7 BM4-5 replicon, positive strand HCV RNA by Northern blot, three days treatment
[13] = Huh7 BM4-5 replicon, positive strand HCV RNA by Northern blot, three days treatment

In the case of `O=c1[nH]c(=O)n([C@@H]2O[C@H](CO)[C@@H](O)[C@H]2O)cc1C#CBr` [Compound 13b, 5-(2-bromoethynyl)-uridine], the IC50 [1, 12] is reported as 58 µM, the IC90 [1, 12] is reported as greater than 200 µM and the “Selectivity Index (SI), ratio between CC50 and IC50” value [1] is reported as 3.2. It also gave a CC50 at 3 days [2] of 188 µM, a CC50 [3] greater than 100 µM and a CC50 [4] greater than 100 µM. It also gave a CC50 [5] greater than 100 µM, an EC50 [6] greater than 100 µM and a CC50 at 3 days [7] greater than 100 µM.
For `NC(=O)c1ncn([C@@H]2O[C@H](CO)[C@@H](O)[C@H]2O)n1` [Ribavirin, 1-β-D-ribofuranosyl-1,2,4-triazole-3-carboxamide, reference compound], the IC50 ([1]; Hepatitis C virus, 72 h) was 170 µM, the IC90 [1, 12] was greater than 512 µM and the “Selectivity Index (SI), ratio between CC50 and IC50” value [1] was less than 1. The CC50 at 3 days [2] was 110 µM, the EC50 [6] was 36 µM and the CC50 at 3 days [7] was greater than 100 µM.
`O=c1[nH]c(=O)n([C@@H]2O[C@H](CO)[C@@H](O)[C@H]2O)cc1/C(Cl)=C\I` [Compound 16b, (E)-5-(l-Chloro-2-iodovinyl)-uridine] gave an IC50 [1, 13] of 74.9 µM, an IC90 [1, 13] greater than 250 µM and a CC50 [8] greater than 200 µM. It also gave a CC50 [9] greater than 100 µM, a CC50 [10] greater than 100 µM and a CC50 [11] greater than 100 µM.
With `O=c1[nH]c(=O)n([C@@H]2O[C@H](CO)C[C@H]2O)cc1/C(Br)=C\I` [Compound 15c, (E)-5-(1-Bromo-2-iodovinyl)-3′-deoxyuridine] the IC50 [1, 12] was greater than 200 µM, the IC90 [1, 12] was greater than 200 µM and the “Selectivity Index (SI), ratio between CC50 and IC50” value [1] was “≦1”. The CC50 at 3 days [2] was greater than 200 µM, the CC50 [3] was 71.5 µM and the CC50 [4] was 79.3 µM. It also gave a CC50 [5] greater than 100 µM, an EC50 [6] greater than 100 µM and a CC50 at 3 days [7] greater than 100 µM.
